Assay: Inhibition of ACK1 in mouse C8 cells assessed as decrease in cell viability after 20 to 24 hrs

## CNS(=O)(=O)c1ccc(-c2oc3ncnc(NC[C@@H]4CCCO4)c3c2-c2ccccc2)cc1
  IC50: 300 nM

## c1ccc(-c2c(-c3ccc(OCCN4CCCC4)cc3)[nH]c3ncnc(NCC4SCCS4)c23)cc1
  IC50: 10 nM

## COc1ccc(-c2[nH]c3ncnc(NC[C@@H]4CCCO4)c3c2-c2ccccc2)cc1
  IC50: 350 nM

## CN(C)CCOc1ccc(-c2oc3ncnc(NC[C@@H]4CCCO4)c3c2-c2ccccc2)cc1 [(S)-6-(4-(2-(dimethylamino)ethoxy)phenyl)-5-phenyl-N-((tetrahydrofuran-2-yl)methyl)furo[2,3-d]pyrimidin-4-amine]
  IC50: 30 nM

## CNC(=O)c1ccc(-c2oc3ncnc(NC[C@@H]4CCCO4)c3c2-c2ccccc2)cc1
  IC50: 2050 nM

## c1ccc(-c2oc3nccc(NC[C@@H]4CCCO4)c3c2-c2ccccc2)cc1 [N-[(2S)-oxolan-2-ylmethyl]-2,3-diphenylfuro[2,3-b]pyridin-4-amine]
  IC50: 5600 nM

## COc1ccc(-c2oc3ncnc(NC[C@@H]4CCCO4)c3c2-c2ccccc2)cc1
  IC50: 550 nM

## O=C(c1ccc(-c2oc3ncnc(NC[C@@H]4CCCO4)c3c2-c2ccccc2)cc1)N1CCOCC1
  IC50: 190 nM

## CN(C)CCOc1ccc(-c2[nH]c3ncnc(NC[C@@H]4CCCO4)c3c2-c2ccccc2)cc1
  IC50: 20 nM

## CO[C@@H]1CC[C@H]1CNc1ncnc2[nH]c(-c3ccc(OCCN(C)C)cc3)c(-c3ccccc3)c12
  IC50: 420 nM

## COc1cccc(-c2c(-c3ccc(OCCN4CCCC4)cc3)[nH]c3ncnc(NC[C@@H]4CCCO4)c23)c1
  IC50: 160 nM

## CN(C)CCOc1ccc(-c2oc3ncnc(NCC4SCCCS4)c3c2-c2ccccc2)cc1
  IC50: 550 nM

## CNS(=O)(=O)c1ccc(-c2[nH]c3ncnc(NC[C@@H]4CCCO4)c3c2-c2ccccc2)cc1
  IC50: 40 nM

## CN(C)CCOc1ccc(-c2[nH]c3ncnc(NCC4SCCS4)c3c2-c2ccccc2)cc1
  IC50: 5 nM

## CN(C)CCOc1ccc(-c2[nH]c3ncnc(NC[C@@H]4CCCO4)c3c2C2=CCCC2)cc1
  IC50: 240 nM

## CN(C)CCOc1ccc(-c2oc3ncnc(NCC4SCCS4)c3c2-c2ccccc2)cc1
  IC50: 10 nM

## CN(C)C(=O)c1ccc(-c2oc3ncnc(NC[C@@H]4CCCO4)c3c2-c2ccccc2)cc1
  IC50: 180 nM

## CN(C)CCOc1ccc(-c2[nH]c3ncnc(NC[C@@H]4CC[C@H]4O)c3c2-c2ccccc2)cc1
  IC50: 410 nM

## CN(C)CCOc1ccc(-c2[nH]c3ncnc(NC[C@@H]4CCCO4)c3c2C2=CCCCC2)cc1
  IC50: 500 nM

## CN(C)CCOc1ccc(-c2oc3ncnc(NCC4OCCO4)c3c2-c2ccccc2)cc1
  IC50: 2000 nM

## CN(C)S(=O)(=O)c1ccc(-c2[nH]c3ncnc(NC[C@@H]4CCCO4)c3c2-c2ccccc2)cc1
  IC50: 90 nM

## CN(C)C(=O)c1ccc(-c2[nH]c3ncnc(NC[C@@H]4CCCO4)c3c2-c2ccccc2)cc1
  IC50: 20 nM

## CO[C@@H]1CCC[C@H]1CNc1ncnc2[nH]c(-c3ccc(OCCN(C)C)cc3)c(-c3ccccc3)c12
  IC50: 1300 nM

## c1ccc(-c2c(-c3ccc(OCCN4CCOCC4)cc3)oc3ncnc(NC[C@@H]4CCCO4)c23)cc1
  IC50: 160 nM

## c1cncc(-c2c(-c3ccc(OCCN4CCCC4)cc3)[nH]c3ncnc(NC[C@@H]4CCCO4)c23)c1
  IC50: 390 nM

## CNC(=O)c1ccc(-c2[nH]c3ncnc(NC[C@@H]4CCCO4)c3c2-c2ccccc2)cc1
  IC50: 40 nM

## Cc1ccccc1-c1c(-c2ccc(OCCN3CCCC3)cc2)[nH]c2ncnc(NC[C@@H]3CCCO3)c12
  IC50: 160 nM

## c1ccc(-c2c(-c3ccc(OCCN4CCOCC4)cc3)[nH]c3ncnc(NC[C@@H]4CCCO4)c23)cc1
  IC50: 80 nM

## CN(C)CCOc1ccc(-c2oc3ncnc(NC[C@@H]4CCCCS4)c3c2-c2ccccc2)cc1
  IC50: 7160 nM

## O=C1CCCN1CCOc1ccc(-c2[nH]c3ncnc(NC[C@@H]4CCCO4)c3c2-c2ccccc2)cc1
  IC50: 20 nM

## c1ccc(-c2[nH]c3ncnc(NC[C@@H]4CCCO4)c3c2-c2ccccc2)cc1
  IC50: 620 nM

## CS(=O)(=O)c1ccc(-c2[nH]c3ncnc(NC[C@@H]4CCCO4)c3c2-c2ccccc2)cc1
  IC50: 100 nM

## c1ccc(-c2c(-c3ccc(OCCN4CCCC4)cc3)[nH]c3ncnc(NC[C@@H]4CCCO4)c23)cc1
  IC50: 60 nM

## O=C(c1ccc(-c2[nH]c3ncnc(NC[C@@H]4CCCO4)c3c2-c2ccccc2)cc1)N1CCOCC1
  IC50: 20 nM

## Fc1ccccc1-c1c(-c2ccc(OCCN3CCCC3)cc2)[nH]c2ncnc(NC[C@@H]3CCCO3)c12
  IC50: 40 nM

## CO[C@@H]1CCC[C@@H]1CNc1ncnc2[nH]c(-c3ccc(OCCN(C)C)cc3)c(-c3ccccc3)c12
  IC50: 780 nM

## O=C1CCCN1CCOc1ccc(-c2oc3ncnc(NC[C@@H]4CCCO4)c3c2-c2ccccc2)cc1
  IC50: 230 nM

## CS(=O)(=O)c1ccc(-c2oc3ncnc(NC[C@@H]4CCCO4)c3c2-c2ccccc2)cc1
  IC50: 250 nM

## CN(C)CCOc1ccc(-c2oc3ncnc(NCC4CCCS4)c3c2-c2ccccc2)cc1 (stereo not given)
  IC50: 3000 nM

## CN(C)CCOc1ccc(-c2[nH]c3ncnc(NC[C@H]4CCC[C@H]4O)c3c2-c2ccccc2)cc1
  IC50: 460 nM
